# In BindingDB's records for doi:10.1016/j.bmcl.2013.05.031 (Second Military Medical University, 2013):
# Target: Acrosin (Homo sapiens, UniProt P10323)
# Assay: Inhibition of human sperm acrosin using BAPNA as substrate after 3 hrs by spectrophotometric analysis
# Acrosin, sequence (P10323 20-42 limits assumed): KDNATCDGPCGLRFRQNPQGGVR
# Acrosin, sequence (P10323 43-343 limits assumed): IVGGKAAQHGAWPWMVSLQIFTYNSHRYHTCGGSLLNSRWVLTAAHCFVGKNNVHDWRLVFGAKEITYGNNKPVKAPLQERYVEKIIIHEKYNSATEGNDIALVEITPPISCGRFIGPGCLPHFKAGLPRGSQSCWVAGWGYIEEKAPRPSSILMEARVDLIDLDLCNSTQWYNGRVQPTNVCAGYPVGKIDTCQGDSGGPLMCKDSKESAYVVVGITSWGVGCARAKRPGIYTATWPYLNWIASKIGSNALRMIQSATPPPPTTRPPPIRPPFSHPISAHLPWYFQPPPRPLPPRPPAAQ
row,IC50 [µM],SMILES
1,390,O=Cc1cc(-c2ccc(Cl)cc2Cl)on1
2,410,COc1ccc(-c2cc(C(=O)N(C)CCO)n[nH]2)cc1
3,60,CC(O)CNC(=O)c1cc(-c2ccccc2)[nH]n1 (stereo not drawn)
4,540,O=C(NCCCO)c1cc(-c2ccccc2)[nH]n1
5,1700,O=C(c1cc(-c2ccccc2)[nH]n1)N(CCO)CCO
6,2800,O=C(NCCO)c1cc(-c2ccccc2)n[nH]1
7,10000,O=C(NCCOCCO)c1cc(-c2ccc(Br)cc2)[nH]n1
8,880,CC(CO)NC(=O)c1cc(-c2ccc(Br)cc2)n[nH]1 (stereo not drawn)
9,330,CC(O)CNC(=O)c1cc(-c2ccc(Br)cc2)n[nH]1 (stereo not drawn)
10,380,O=C(NCCCO)c1cc(-c2ccc(Br)cc2)[nH]n1
11,1520,O=C(c1cc(-c2ccc(Br)cc2)n[nH]1)N(CCO)CCO
12,530,O=C(NCCO)c1cc(-c2ccc(Br)cc2)[nH]n1
13,760,O=C(NC(CO)(CO)CO)c1cc(-c2cccc([N+](=O)[O-])c2)[nH]n1
14,9100,O=C(NCCOCCO)c1cc(-c2cccc([N+](=O)[O-])c2)n[nH]1
15,790,CN(CCO)C(=O)c1cc(-c2cccc([N+](=O)[O-])c2)n[nH]1
16,1830,CC(O)CNC(=O)c1cc(-c2cccc([N+](=O)[O-])c2)n[nH]1 (stereo not drawn)
17,780,O=C(NCCCO)c1cc(-c2cccc([N+](=O)[O-])c2)[nH]n1

row,IC50 [µM],SMILES
1,2400,O=C(c1cc(-c2cccc([N+](=O)[O-])c2)n[nH]1)N(CCO)CCO
2,760,O=C(NCCO)c1cc(-c2cccc([N+](=O)[O-])c2)[nH]n1
3,5220,O=C(NC(CO)(CO)CO)c1cc(-c2ccc([N+](=O)[O-])cc2)[nH]n1
4,2070,O=C(NCCOCCO)c1cc(-c2ccc([N+](=O)[O-])cc2)n[nH]1
5,1870,CC(C)(CO)NC(=O)c1cc(-c2ccc([N+](=O)[O-])cc2)n[nH]1
6,2000,CN(CCO)C(=O)c1cc(-c2ccc([N+](=O)[O-])cc2)n[nH]1
7,1210,CC(O)CN(CC(C)O)C(=O)c1cc(-c2ccc([N+](=O)[O-])cc2)n[nH]1 (stereo not drawn)
8,2950,CC(O)CNC(=O)c1cc(-c2ccc([N+](=O)[O-])cc2)[nH]n1 (stereo not drawn)
9,3070,O=C(NCCCO)c1cc(-c2ccc([N+](=O)[O-])cc2)[nH]n1
10,5600,O=C(c1cc(-c2ccc([N+](=O)[O-])cc2)n[nH]1)N(CCO)CCO
11,2700,O=C(NCCO)c1cc(-c2ccc([N+](=O)[O-])cc2)n[nH]1
12,6020,COc1ccc(-c2cc(C(=O)NCCOCCO)[nH]n2)cc1
13,90,COc1ccc(-c2cc(C(=O)NCCO)[nH]n2)cc1
14,940,O=C(NC(CO)(CO)CO)c1cc(-c2ccccc2)n[nH]1
15,3000,CC(CO)NC(=O)c1cc(-c2ccccc2)[nH]n1 (stereo not drawn)
16,10,CC(O)CN(CC(C)O)C(=O)c1cc(-c2ccccc2)[nH]n1 (stereo not drawn)
